Experimental data: patent US9278958B2, “Anti-cancer compounds” (KATHOLIEKE UNIVERSITEIT LEUVEN, priority 2012, dated 2016)
Read-outs that look alike come from different tables or passages of the source.

Tests used:
[1] = system: OST TK- osteosarcoma cells; assay: Cytostatic assay, OST TK-; type: cell-based; details: Homo sapiens; Table 3
Outline: (§1)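 Read-out is the cell number after incubation, counted electronically (Coulter). Cultures started from 5-7.5×10^4 cells per well exposed to compound, kept 48 h to 96 h at 37° C under humidified CO2 control.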

[2] = system: PC3 (rega) prostate cancer cells; assay: Cytostatic assay, PC3 (rega); type: cell-based; details: Table 4
Outline: as §1

[3] = system: HL60, human leukemia cells; assay: Cytostatic assay, HL-60; type: cell-based; details: Table 2
Outline: as §1

[4] = system: CEM cells; assay: Cytostatic assay, CEM; type: cell-based; details: Homo sapiens, CCRF-CEM; Table 2; read-out: Cytostatic activity (μM) CEM
Outline: as §1

[5] = system: Molt4/C8 cells; assay: Cytostatic assay, Molt4/C8; type: cell-based; details: Table 2
Outline: as §1

[6] = system: RNA synthesis in CEM cells; assay: Antimetabolic activity assay, [5-3H]uridine incorporation (RNA synthesis), CEM; type: cell-based; details: Homo sapiens, CCRF-CEM, incorporation into TCA-insoluble material
Protocol: (§2) Radiolabeled precursors of DNA synthesis ([^3H-methyl]dThd), RNA synthesis ([5-^3H]Urd), and protein synthesis ([4,5-^3H]leu) were added to 10^5 CEM cell cultures in the 200 μl-wells of a microtiter plate at 1 μCi for each precursor in the presence of varying concentrations of the test compounds (5-fold dilution series). The cells were allowed to proliferate for 20 hrs at 37° C. in a humidified, CO2-controlled atmosphere. At the end of the incubation period, the contents of the wells were brought onto 25-mm glass fiber filters and further processed for measurement of acid-insoluble radioactivity.

[7] = system: HUT-78 cells; assay: Cytostatic assay, HUT-78; type: cell-based; details: Homo sapiens, HuT78; Table 2
Outline: as §1

[8] = system: Raji, human B-lymphoma cells; assay: Cytostatic assay, Raji; type: cell-based; details: Table 2
Outline: as §1

[9] = system: U937, human monocytic cells; assay: Cytostatic assay, U937; type: cell-based; details: U-937, Table 2
Outline: as §1

[10] = system: broad variety of tumor cell lines; assay: Cytostatic assays, summary over the panel of cell lines (Tables 2-4); type: cell-based
Protocol: (§3) To each well of a 96-well microtiter plate were added 5-7.5×10^4 cells and a given amount of the test compound. The cells were allowed to proliferate for 48 h to 96 h (depending on the nature of the cell line) at 37° C. in a humidified CO2-controlled atmosphere. At the end of the incubation period, the cells were counted in a Coulter Counter (Coulter Electronics Ltd, Harpenden Herts, United Kingdom).

[11] = system: DU145 (UZ) prostate cancer cells; assay: Cytostatic assay, DU145 (UZ); type: cell-based; details: Homo sapiens, DU-145; Table 4
Outline: as §1

[12] = system: Caki-1 kidney carcinoma cells; assay: Cytostatic assay, Caki-1; type: cell-based; details: Homo sapiens, Table 3
Outline: as §1

[13] = system: 293T embryonic kidney cells; assay: Cytostatic assay, 293T; type: cell-based; details: Homo sapiens, HEK-293T; Table 3
Outline: as §1

[14] = system: DNA synthesis in Raji cells; assay: Antimetabolic activity assay, [CH3-3H]dThd incorporation (DNA synthesis), Raji; type: cell-based; details: Homo sapiens, incorporation into TCA-insoluble material
Protocol: [The procedure below names another cell line; the source lists this cell line under the same test.] as §2

[15] = system: HepG2C3A hepatoma cells; assay: Cytostatic assay, HepG2C3A; type: cell-based; details: Homo sapiens, HepG2/C3A; Table 4
Outline: as §1

[16] = system: Caki-2 kidney carcinoma cells; assay: Cytostatic assay, Caki-2; type: cell-based; details: Homo sapiens, Table 3
Outline: as §1

[17] = system: MT-4 cells; assay: Cytostatic assay, MT-4; type: cell-based; details: Homo sapiens, MT4; Table 2
Outline: as §1

[18] = system: THP-1, human monocytic cells; assay: Cytostatic assay, THP-1; type: cell-based; details: Table 2
Outline: as §1

[19] = system: Sup T1 cells; assay: Cytostatic assay, Sup T1; type: cell-based; details: Homo sapiens, Table 2, read-out: Cytostatic activity (μM) Sup T 1
Outline: as §1

[20] = system: PNT1A (UZ) prostate cells; assay: Cytostatic assay, PNT1A (UZ); type: cell-based; details: Homo sapiens, Table 4
Outline: as §1

[21] = system: PC-3 (UZ) prostate cancer cells; assay: Cytostatic assay, PC-3 (UZ); type: cell-based; details: Table 4
Outline: as §1

[22] = system: MCF-7 mammary carcinoma cells; assay: Cytostatic assay, MCF-7; type: cell-based; details: Homo sapiens, MCF7; Table 3
Outline: as §1

[23] = system: HEL embryonic lung fibroblast cells; assay: Cytostatic assay, HEL; type: cell-based; details: Homo sapiens, Table 3
Outline: as §1

[24] = system: RNA synthesis in Raji cells; assay: Antimetabolic activity assay, [5-3H]uridine incorporation (RNA synthesis), Raji; type: cell-based; details: Homo sapiens, incorporation into TCA-insoluble material
Protocol: [The procedure below names another cell line; the source lists this cell line under the same test.] as §2

[25] = system: 22Rv1 (UZ) prostate cancer cells; assay: Cytostatic assay, 22Rv1 (UZ); type: cell-based; details: Homo sapiens, Table 4
Outline: as §1

[26] = system: protein synthesis in CEM cells; assay: Antimetabolic activity assay, [4,5-3H]leucine incorporation (protein synthesis), CEM; type: cell-based; details: Homo sapiens, CCRF-CEM, incorporation into TCA-insoluble material
Protocol: as §2

[27] = system: FM3A mammary carcinoma cells; assay: Cytostatic assay, FM3A; type: cell-based, murine; details: Mus musculus, Table 3
Outline: as §1

[28] = system: U87 glioma cells; assay: Cytostatic assay, U87; type: cell-based; details: Homo sapiens, U-87 MG; Table 3
Outline: as §1

[29] = system: HeLa cervix carcinoma cells; assay: Cytostatic assay, HeLa; type: cell-based, human; details: Homo sapiens; Table 3; read-out: Cytostatic activity (μM) Hela
Outline: as §1

[30] = system: DNA synthesis in CEM cells; assay: Antimetabolic activity assay, [CH3-3H]dThd incorporation (DNA synthesis), CEM; type: cell-based; details: Homo sapiens, CCRF-CEM, incorporation into TCA-insoluble material
Protocol: as §2

[31] = system: LNCaP (UZ) prostate cancer cells; assay: Cytostatic assay, LNCaP (UZ); type: cell-based; details: Homo sapiens, Table 4
Outline: as §1

[32] = system: C8166 cells; assay: Cytostatic assay, C8166; type: cell-based; details: Homo sapiens, Table 2
Outline: as §1

[33] = system: MT-2 cells; assay: Cytostatic assay, MT-2; type: cell-based; details: Homo sapiens, MT2; Table 2
Outline: as §1

[34] = system: BPH-1 (UZ); assay: Cytostatic assay, BPH-1 (UZ); type: cell-based; details: Homo sapiens, Table 4
Outline: as §1

[35] = system: Daudi, human B-lymphoma cells; assay: Cytostatic assay, Daudi; type: cell-based; details: Table 2
Protocol: as §3

[36] = system: PLC/PRF/5 hepatoma cells; assay: Cytostatic assay, PLC/PRF/5; type: cell-based; details: Homo sapiens, Table 4
Outline: as §1

[37] = system: Huh-7 hepatoma cells; assay: Cytostatic assay, Huh-7; type: cell-based; details: Homo sapiens, Table 4
Outline: as §1

[38] = system: BAEC aortic endothelial cells; assay: Cytostatic assay, BAEC; type: cell-based, bovine; details: Bos taurus, Table 3
Outline: as §1

[39] = system: U87 CD4+/CXCR4+/CCR5+ glioma cells; assay: Cytostatic assay, U87 CD4+/CXCR4+/CCR5+; type: cell-based; details: Homo sapiens, Glioma cell; Table 3
Protocol: as §3

[40] = system: HOS CD4+ osteosarcoma cells; assay: Cytostatic assay, HOS CD4+; type: cell-based; details: Homo sapiens; Table 3
Protocol: as §3

[41] = system: protein synthesis in Raji cells; assay: Antimetabolic activity assay, [4,5-3H]leucine incorporation (protein synthesis), Raji; type: cell-based; details: Homo sapiens, incorporation into TCA-insoluble material
Protocol: [The procedure below names another cell line; the source lists this cell line under the same test.] as §2

[42] = system: HT29 colorectal carcinoma cells; assay: Cytostatic assay, HT29; type: cell-based; details: Homo sapiens, HT-29; Table 3
Outline: as §1

Q: For `CCOC(=O)c1cc(CCc2ccc(OC)cc2)sc1N` [TR532, 2-Amino-5-[2-(4-methoxy-phenyl)-ethyl]-thiophene-3-carboxylic acid ethyl ester], which IC50 [1] is on record?
A: 5.4 ± 3.3 µM

Q: And the IC50 [2]?
A: 0.67 ± 0.14 µM

Q: And the IC50 [3]?
A: 7 ± 8.7 µM

Q: What about the IC50 [4] of the same molecule?
A: 1.9 ± 0.99 µM

Q: And the IC50 [5]?
A: 0.34 µM

Q: And the IC50 [6]?
A: 3 ± 0.1 µM

Q: And the IC50 [7]?
A: 22 ± 9.2 µM

Q: And the IC50 [8]?
A: 39 ± 2.8 µM

Q: And the IC50 [9]?
A: 43 ± 1.4 µM

Q: What about the IC50 ([10]; Homo sapiens, HuT78, range for the seven compounds, MT-4 and HUT-78 cells, read-out: IC50 range, cytostatic activity against MT-4 and HUT-78 cells) of the same molecule?
A: 8.5 to 60 µM

Q: What about the IC50 ([10]; range for the seven compounds against the 5 tumor cell lines, read-out: IC50 range, cytostatic activity against CEM, Molt4/C8, Sup T1, MT-2 and C8166 cells) of the same molecule?
A: 0.22 to 3.4 µM

Q: And the IC50 [11]?
A: 8.4 ± 1.6 µM

Q: And the IC50 [12]?
A: 4.6 ± 2.1 µM

Q: What about the IC50 [13] of the same molecule?
A: 41 ± 0.71 µM

Q: And the IC50 [14]?
A: > 100 µM

Q: And the IC50 [15]?
A: 6.7 ± 0.35 µM

Q: And the IC50 [16]?
A: 66 ± 37 µM

Q: And the IC50 [17]?
A: 8.5 ± 0.92 µM

Q: And the IC50 [18]?
A: 23 ± 3.5 µM

Q: What about the IC50 [19] of the same molecule?
A: 1.5 ± 0.071 µM

Q: What about the IC50 [20] of the same molecule?
A: 37 ± 9.9 µM

Q: And the IC50 [21]?
A: 1.1 ± 0.49 µM

Q: And the IC50 [22]?
A: 36 ± 5.7 µM

Q: What about the IC50 [23] of the same molecule?
A: 20 ± 8.5 µM

Q: What about the IC50 [24] of the same molecule?
A: > 100 µM

Q: And the IC50 [25]?
A: 15 ± 7.9 µM

Q: And the IC50 [26]?
A: 1.6 ± 1.1 µM

Q: And the IC50 [27]?
A: 46 ± 6 µM

Q: And the IC50 [28]?
A: 38 ± 1.4 µM

Q: What about the IC50 [29] of the same molecule?
A: 39 µM

Q: And the IC50 [30]?
A: 11 ± 4 µM

Q: And the IC50 [31]?
A: 0.34 ± 0.05 µM

Q: What about the IC50 [32] of the same molecule?
A: 3.4 ± 0.071 µM

Q: And the IC50 [33]?
A: 1.7 ± 0.14 µM

Q: And the IC50 [34]?
A: 43 ± 2.8 µM

Q: And the IC50 [35]?
A: 43 ± 2.1 µM

Q: And the IC50 [36]?
A: 24 ± 2.1 µM

Q: What about the IC50 [37] of the same molecule?
A: 1.6 ± 0.14 µM

Q: And the IC50 [38]?
A: 23 ± 0.71 µM

Q: What about the IC50 [39] of the same molecule?
A: 37 ± 9.9 µM

Q: What about the IC50 [40] of the same molecule?
A: 25 ± 5.7 µM

Q: And the IC50 [41]?
A: ≥ 100 µM

Q: What about the IC50 [42] of the same molecule?
A: 27 ± 13 µM
